Numbers after ± are expanded uncertainties.
Assay: cn = amount concentration of the nth substance listed, in mol/dm3
Settings: 101 kPa, Liquid

C1COCCOCCOCCOCCOCCO1 [1,4,7,10,13,16-hexaoxacyclooctadecane] + ClC(Cl)(Cl)Cl
Settings	mass density [kg/m3]
293.15 K, c1 = 0.06567	1586.34 ± 1.9
293.15 K, c1 = 0.09829	1582.87 ± 1.9
293.15 K, c1 = 0.1283	1579.71 ± 1.9
293.15 K, c1 = 0.1856	1573.71 ± 1.9
293.15 K, c1 = 0.2464	1567.44 ± 1.9
293.15 K, c1 = 0.3256	1559.42 ± 1.8
298.15 K, c1 = 0.06528	1576.94 ± 1.9
298.15 K, c1 = 0.09771	1573.63 ± 1.9
298.15 K, c1 = 0.1275	1570.6 ± 1.9
298.15 K, c1 = 0.1846	1564.86 ± 1.9
298.15 K, c1 = 0.2451	1558.88 ± 1.8
298.15 K, c1 = 0.3239	1551.22 ± 1.8
303.15 K, c1 = 0.0649	1567.64 ± 1.9
303.15 K, c1 = 0.09714	1564.39 ± 1.9
303.15 K, c1 = 0.1268	1561.42 ± 1.9
303.15 K, c1 = 0.1835	1555.75 ± 1.9
303.15 K, c1 = 0.2436	1549.77 ± 1.8
303.15 K, c1 = 0.322	1542.04 ± 1.8
308.15 K, c1 = 0.06453	1558.35 ± 1.9
308.15 K, c1 = 0.09662	1555.25 ± 1.9
308.15 K, c1 = 0.1261	1552.41 ± 1.9
308.15 K, c1 = 0.1827	1547.01 ± 1.8
308.15 K, c1 = 0.2426	1541.36 ± 1.8
308.15 K, c1 = 0.3209	1534.08 ± 1.8

C1COCCOCCOCCOCCOCCO1 [1,4,7,10,13,16-hexaoxacyclooctadecane] + O
Settings	mass density [kg/m3]
293.15 K, c1 = 0.0406	999.92 ± 0.26
293.15 K, c1 = 0.07841	1001.5 ± 0.26
293.15 K, c1 = 0.1209	1003.25 ± 0.27
293.15 K, c1 = 0.1782	1005.57 ± 0.28
293.15 K, c1 = 0.2079	1006.75 ± 0.28
293.15 K, c1 = 0.2528	1008.52 ± 0.29
293.15 K, c1 = 0.3203	1011.12 ± 0.3
298.15 K, c1 = 0.04054	998.67 ± 0.26
298.15 K, c1 = 0.07831	1000.21 ± 0.26
298.15 K, c1 = 0.1207	1001.91 ± 0.27
298.15 K, c1 = 0.1779	1004.16 ± 0.27
298.15 K, c1 = 0.2076	1005.32 ± 0.28
298.15 K, c1 = 0.2524	1007.03 ± 0.28
298.15 K, c1 = 0.3198	1009.57 ± 0.29
303.15 K, c1 = 0.04049	997.39 ± 0.27
303.15 K, c1 = 0.0782	998.84 ± 0.26
303.15 K, c1 = 0.1205	1000.51 ± 0.26
303.15 K, c1 = 0.1777	1002.72 ± 0.27
303.15 K, c1 = 0.2073	1003.84 ± 0.27
303.15 K, c1 = 0.252	1005.51 ± 0.28
303.15 K, c1 = 0.3193	1008 ± 0.29
308.15 K, c1 = 0.04042	995.61 ± 0.27
308.15 K, c1 = 0.07806	997.09 ± 0.27
308.15 K, c1 = 0.1203	998.72 ± 0.26
308.15 K, c1 = 0.1774	1000.89 ± 0.26
308.15 K, c1 = 0.2069	1001.99 ± 0.27
308.15 K, c1 = 0.2515	1003.65 ± 0.27
308.15 K, c1 = 0.3187	1006.08 ± 0.28

ClC(Cl)(Cl)Cl [tetrachloromethane] + C1COCCOCCOCCOCCOCCO1
c2 = 0
Settings	mass density [kg/m3]
293.15 K	1593.39 ± 1.9
298.15 K	1583.71 ± 1.9
303.15 K	1574.2 ± 1.9
308.15 K	1564.65 ± 1.9
